Drawing on US20260053834A1, “COVALENT MODIFIERS OF AKT1 AND USES THEREOF” (Terremoto Biosciences, Inc., priority 2023, published 2026), this text covers IC50 for 18 compounds.

The target in one experiment is T1, AKT1 E17K (Homo sapiens, UniProt P31749, E17K).
T1 construct: expressed in transfected cells; host or cells: HEK293
Nature of the experiment: Live cell target engagement by NanoBRET competitive probe displacement, AKT1 E17K. To be noted: transfected HEK293 cells, 2 h at 37° C., read-out: AKT1 E17K IC50: GeoMean IC50. It is filed as binding. A general note: Bioluminescence resonance energy transfer reports proximity on the nanometre scale.

The target in another experiment is T2, AKT2 (Homo sapiens, UniProt P31751).
T2 construct: expressed in transfected cells; host or cells: HEK293
T2 sequence (P31751 whole entry): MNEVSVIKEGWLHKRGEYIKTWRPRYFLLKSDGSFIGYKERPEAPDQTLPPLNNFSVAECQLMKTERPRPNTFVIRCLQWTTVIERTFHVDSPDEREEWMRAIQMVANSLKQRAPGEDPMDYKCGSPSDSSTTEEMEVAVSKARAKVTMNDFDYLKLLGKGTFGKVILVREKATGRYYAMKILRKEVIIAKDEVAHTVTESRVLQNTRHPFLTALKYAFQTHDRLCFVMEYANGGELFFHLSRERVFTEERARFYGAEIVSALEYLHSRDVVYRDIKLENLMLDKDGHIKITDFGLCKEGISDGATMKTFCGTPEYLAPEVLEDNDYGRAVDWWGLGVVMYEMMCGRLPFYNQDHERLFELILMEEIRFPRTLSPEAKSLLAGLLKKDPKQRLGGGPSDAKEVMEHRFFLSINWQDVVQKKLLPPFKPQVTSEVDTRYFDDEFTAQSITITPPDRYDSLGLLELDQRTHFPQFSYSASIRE
Put plainly: Live cell target engagement by NanoBRET competitive probe displacement, AKT2. In kind it is binding. Conditions: transfected HEK293 cells, 2 h at 37° C., read-out: AKT2 IC50: GeoMean IC50.

A further experiment deals with T3, AKT1 WT (Homo sapiens, UniProt P31749).
T3 construct: expressed in transfected cells; host or cells: HEK293
T3 sequence (P31749 whole entry): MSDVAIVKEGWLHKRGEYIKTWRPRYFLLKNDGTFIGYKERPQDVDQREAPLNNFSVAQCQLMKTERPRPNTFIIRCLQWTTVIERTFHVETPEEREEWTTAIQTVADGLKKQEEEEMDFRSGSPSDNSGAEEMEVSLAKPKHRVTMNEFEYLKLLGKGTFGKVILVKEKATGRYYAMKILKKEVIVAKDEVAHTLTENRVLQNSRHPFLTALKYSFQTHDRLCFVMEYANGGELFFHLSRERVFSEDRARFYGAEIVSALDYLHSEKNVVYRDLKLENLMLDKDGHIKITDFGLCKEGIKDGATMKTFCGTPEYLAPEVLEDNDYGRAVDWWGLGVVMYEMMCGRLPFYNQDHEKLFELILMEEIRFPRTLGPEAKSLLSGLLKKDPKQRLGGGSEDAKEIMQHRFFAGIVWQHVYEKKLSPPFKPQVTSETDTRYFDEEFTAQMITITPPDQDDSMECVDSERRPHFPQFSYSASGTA
Nature of the experiment: Live cell target engagement by NanoBRET competitive probe displacement, AKT1 WT. Conditions: transfected HEK293 cells, 2 h at 37° C., read-out: AKT1 WT IC50: GeoMean IC50. In kind it is binding.

In experiment [1] the test system is LAPC4 prostate cancer cells, which express the AKT1 E17K allele. Put plainly: Antiproliferative effects in LAPC4 cells (CellTiter Glo, 72 h). In kind it is cell-based. Conditions: Homo sapiens, LAPC4, 72 h, read-out: LAPC4 proliferation IC50: GeoMean IC50. The method in brief:
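Cells grown in IMDM with 12% FBS, seeded at 1,000 cells/well and treated with compound dilutions in DMSO for 72 h. Intracellular ATP read by luminescence. IC50 from a log(inhibitor) vs. response Hill fit.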
(In general: In ATP-based viability assays light output follows the ATP content of the culture.)

T1 sequence (P31749 whole entry E17K): as the sequence (P31749 whole entry) above, with E17K counted along it

On to `CSc1ccn(-c2ccc3nc(-c4cccnc4N)n(-c4ccc5c(c4)CC[C@@H]5NC(=O)c4ccc(O)c(C=O)c4)c3n2)n1` [Example 124, N-[(1S)-5-[2-(2-aminopyridin-3-yl)-5-[3-(methylsulfanyl)pyrazol-1-yl]imidazo[4,5-b]pyridin-3-yl]-2,3-dihydro-1H-inden-1-yl]-3-formyl-4-hydroxybenzamide], for which the IC50 at AKT1 E17K lay in the range of 0.01 to 0.1 µM; on AKT2, 0.1 to 2 µM; at AKT1 WT, 0.01 to 0.1 µM; in experiment [1], 0.01 to 0.1 µM.

In the case of `Cc1cc(-n2nccn2)nc2c1nc(-c1cccnc1N)n2-c1ccc2c(c1)CC[C@@H]2NC(=O)c1cc(C=O)c(O)c(F)c1F` [Example 227, N-[(1S)-5-[2-(2-aminopyridin-3-yl)-7-methyl-5-(1,2,3-triazol-2-yl)imidazo[4,5-b]pyridin-3-yl]-2,3-dihydro-1H-inden-1-yl]-2,3-difluoro-5-formyl-4-hydroxybenzamide], the IC50 on AKT1 E17K was in the range of 0.01 to 0.1 µM; on AKT2, 0.1 to 2 µM; on AKT1 WT, 0.01 to 0.1 µM; in experiment [1] it was 0.01 to 0.1 µM.

Regarding `Nc1ncccc1-c1nc2c(-n3cccn3)cc(-n3cccn3)nc2n1-c1ccc2c(c1)CC[C@@H]2NC(=O)c1ccc(O)c(C=O)c1` [Example 198, N-[(1S)-5-[2-(2-aminopyridin-3-yl)-5,7-bis(pyrazol-1-yl)imidazo[4,5-b]pyridin-3-yl]-2,3-dihydro-1H-inden-1-yl]-3-formyl-4-hydroxybenzamide], the IC50 was 0.01 to 0.1 µM on AKT1 E17K, 0.1 to 2 µM on AKT2, 0.01 to 0.1 µM on AKT1 WT and 0.1 to 2 µM in experiment [1].

As to `Nc1ncccc1-c1nc2ccc(-c3cn[nH]c3)nc2n1-c1ccc2c(c1)CC[C@@H]2NC(=O)c1ccc(O)c(C=O)c1` [Example 67, N-[(1S)-5-[2-(2-aminopyridin-3-yl)-5-(1H-pyrazol-4-yl)imidazo[4,5-b]pyridin-3-yl]-2,3-dihydro-1H-inden-1-yl]-3-formyl-4-hydroxybenzamide], the IC50 (on AKT1 E17K; on AKT2; on AKT1 WT; in experiment [1]) was 0.1 to 2 µM each time.

Take `Nc1ncccc1-c1nc2ccc(-n3cccn3)nc2n1-c1ccc2c(c1)CC[C@@H]2NCc1cc(C=O)c(O)cc1F` [Example 239, 5-({[(1S)-5-[2-(2-aminopyridin-3-yl)-5-(pyrazol-1-yl)imidazo[4,5-b]pyridin-3-yl]-2,3-dihydro-1H-inden-1-yl]amino}methyl)-4-fluoro-2-hydroxybenzaldehyde]: the IC50 at AKT1 E17K is 0.01 to 0.1 µM; on AKT2, 0.1 to 2 µM; on AKT1 WT it was 0.01 to 0.1 µM; in experiment [1] it was at least 2 µM.

For the compound `CN(C)c1ccn(-c2ccc3nc(-c4cccnc4N)n(-c4ccc5c(c4)CC[C@@H]5NC(=O)c4ccc(O)c(C=O)c4)c3n2)n1` [Example 114, (S)—N-(5-(2-(2-aminopyridin-3-yl)-5-(3-(dimethylamino)-1H-pyrazol-1-yl)-3H-imidazo[4,5-b]pyridin-3-yl)-2,3-dihydro-1H-inden-1-yl)-3-formyl-4-hydroxybenzamide], the IC50 was 0.01 to 0.1 µM on AKT1 E17K, 0.1 to 2 µM at AKT2, 0.01 to 0.1 µM at AKT1 WT and 0.01 to 0.1 µM in experiment [1].

Consider `Nc1ncccc1-c1nc2ccc(-n3ccc(-n4cccn4)n3)nc2n1-c1ccc2c(c1)CC[C@@H]2NC(=O)c1ccc(O)c(C=O)c1` [Example 117, (S)—N-(5-(5-(1′H-[1,3′-bipyrazol]-1′-yl)-2-(2-aminopyridin-3-yl)-3H-imidazo[4,5-b]pyridin-3-yl)-2,3-dihydro-1H-inden-1-yl)-3-formyl-4-hydroxybenzamide], for which the IC50 was in the range of 0.01 to 0.1 µM on AKT1 E17K, 0.1 to 2 µM at AKT2, 0.01 to 0.1 µM on AKT1 WT and 0.01 to 0.1 µM in experiment [1].

Consider `Cc1cc(-n2ccc(F)n2)nc2c1nc(-c1cccnc1N)n2-c1ccc2c(c1)CC[C@@H]2NC(=O)c1ccc(O)c(C=O)c1` [Example 181, (S)—N-(5-(2-(2-aminopyridin-3-yl)-5-(3-fluoro-1H-pyrazol-1-yl)-7-methyl-3H-imidazo[4,5-b]pyridin-3-yl)-2,3-dihydro-1H-inden-1-yl)-3-formyl-4-hydroxybenzamide], for which the IC50 on AKT1 E17K lay within 0.01 to 0.1 µM; on AKT2 it was 0.1 to 2 µM; on AKT1 WT, 0.01 to 0.1 µM; in experiment [1] it was 0.1 to 2 µM.

As for `Nc1ncccc1-c1nc2ccc(-c3ccccc3)nc2n1-c1ccc2c(c1)CC[C@@H]2NC(=O)c1ccc(B(O)O)c(C=O)c1` [Example 161, (S)-(4-((5-(2-(2-aminopyridin-3-yl)-5-phenyl-3H-imidazo[4,5-b]pyridin-3-yl)-2,3-dihydro-1H-inden-1-yl)carbamoyl)-2-formylphenyl)boronic acid], the IC50 on AKT1 E17K lay within 0.01 to 0.1 µM; on AKT2, 0.1 to 2 µM; on AKT1 WT it was 0.01 to 0.1 µM; in experiment [1] it was 0.1 to 2 µM.

In the case of `Nc1ncccc1-c1nc2ccc(-c3cscn3)nc2n1-c1ccc2c(c1)CC[C@@H]2NC(=O)c1ccc(O)c(C=O)c1` [Example 88, N-[(1S)-5-[2-(2-aminopyridin-3-yl)-5-(1,3-thiazol-4-yl)imidazo[4,5-b]pyridin-3-yl]-2,3-dihydro-1H-inden-1-yl]-3-formyl-4-hydroxybenzamide], the IC50 at AKT1 E17K is 0.01 to 0.1 µM; on AKT2, 0.1 to 2 µM; on AKT1 WT, 0.01 to 0.1 µM; in experiment [1] it was 0.01 to 0.1 µM.

Turning to `Cn1ccnc1Nc1ccc(C(=O)N[C@H]2CCc3cc(-n4c(-c5cccnc5N)nc5ccc(-n6cccn6)nc54)ccc32)cc1C=O` [Example 141, (S)—N-(5-(2-(2-aminopyridin-3-yl)-5-(1H-pyrazol-1-yl)-3H-imidazo[4,5-b]pyridin-3-yl)-2,3-dihydro-1H-inden-1-yl)-3-formyl-4-((1-methyl-1H-imidazol-2-yl)amino)benzamide], the IC50 was 0.1 to 2 µM at AKT1 E17K, 0.1 to 2 µM on AKT2, 0.01 to 0.1 µM on AKT1 WT and 0.1 to 2 µM in experiment [1].

Take `Cc1noc(-c2ccc3nc(-c4cccnc4N)n(-c4ccc5c(c4)CC[C@@H]5NC(=O)c4ccc(O)c(C=O)c4)c3n2)n1` [Example 179, N-[(1S)-5-[2-(2-aminopyridin-3-yl)-5-(3-methyl-1,2,4-oxadiazol-5-yl)imidazo[4,5-b]pyridin-3-yl]-2,3-dihydro-1H-inden-1-yl]-3-formyl-4-hydroxybenzamide]: the IC50 lay in the range of 0.01 to 0.1 µM at AKT1 E17K, 0.1 to 2 µM on AKT2, 0.01 to 0.1 µM at AKT1 WT and 0.1 to 2 µM in experiment [1].

In the case of `Nc1ncccc1-c1nc2ccc(-c3cnccn3)nc2n1-c1ccc2c(c1)CC[C@@H]2NC(=O)c1cc(F)c(O)c(C=O)c1` [Example 70, (S)—N-(5-(2-(2-aminopyridin-3-yl)-5-(pyrazin-2-yl)-3H-imidazo[4,5-b]pyridin-3-yl)-2,3-dihydro-1H-inden-1-yl)-3-fluoro-5-formyl-4-hydroxybenzamide], the IC50 at AKT1 E17K fell in the range of 0.01 to 0.1 µM; on AKT2 it was 0.1 to 2 µM; on AKT1 WT it was 0.01 to 0.1 µM; in experiment [1], 0.1 to 2 µM.

Consider `Nc1ncccc1-c1nc2ccc(-n3cccn3)nc2n1-c1ccc2c(c1)CC[C@@H]2NC(=O)c1cccc(C=O)c1` [Example 142, (S)—N-(5-(2-(2-aminopyridin-3-yl)-5-(1H-pyrazol-1-yl)-3H-imidazo[4,5-b]pyridin-3-yl)-2,3-dihydro-1H-inden-1-yl)-3-formylbenzamide], for which the IC50 on AKT1 E17K was 0.01 to 0.1 µM; at AKT2, 0.01 to 0.1 µM; on AKT1 WT, under 0.01 µM; in experiment [1], 0.1 to 2 µM.

Regarding `Nc1ncccc1-c1nc2c(-n3cn[nH]c3=O)cc(-n3cccn3)nc2n1-c1ccc2c(c1)CC[C@@H]2NC(=O)c1ccc(O)c(C=O)c1` [Example 233, N-[(1S)-5-[2-(2-aminopyridin-3-yl)-7-(3-oxo-2H-1,2,4-triazol-4-yl)-5-(pyrazol-1-yl)imidazo[4,5-b]pyridin-3-yl]-2,3-dihydro-1H-inden-1-yl]-3-formyl-4-hydroxybenzamide], the IC50 (on AKT1 E17K; at AKT2; on AKT1 WT; in experiment [1]) was 0.1 to 2 µM each time.

Consider `CS(=O)(=O)Nc1ncc(C(=O)N[C@H]2CCc3cc(-n4c(-c5cccnc5N)nc5ccc(-n6cccn6)nc54)ccc32)cc1C=O` [Example 111, N-[(1S)-5-[2-(2-aminopyridin-3-yl)-5-(pyrazol-1-yl)imidazo[4,5-b]pyridin-3-yl]-2,3-dihydro-1H-inden-1-yl]-5-formyl-6-methanesulfonamidopyridine-3-carboxamide], for which the IC50 on AKT1 E17K is 0.1 to 2 µM; at AKT2 it was at least 2 µM; on AKT1 WT it was 0.1 to 2 µM; in experiment [1], at least 2 µM.

On to `[N-]=[N+]=Nc1c(C(=O)N[C@H]2CCc3cc(-n4c(-c5cccnc5N)nc5ccc(-n6cccn6)nc54)ccc32)cc(C=O)c(O)c1F` [Example 218, (S)—N-(5-(2-(2-aminopyridin-3-yl)-5-(1H-pyrazol-1-yl)-3H-imidazo[4,5-b]pyridin-3-yl)-2,3-dihydro-1H-inden-1-yl)-2-azido-3-fluoro-5-formyl-4-hydroxybenzamide], for which the IC50 (on AKT1 E17K; at AKT2; on AKT1 WT; in experiment [1]) was 0.1 to 2 µM in each case.

On to `C#Cc1c(C(=O)N[C@H]2CCc3cc(-n4c(-c5cccnc5N)nc5ccc(-n6cccn6)nc54)ccc32)ccc(O)c1C=O` [Example 112, N-[(1S)-5-[2-(2-aminopyridin-3-yl)-5-(pyrazol-1-yl)imidazo[4,5-b]pyridin-3-yl]-2,3-dihydro-1H-inden-1-yl]-2-ethynyl-3-formyl-4-hydroxybenzamide], for which the IC50 at AKT1 E17K is 0.01 to 0.1 µM; at AKT2 it was 0.1 to 2 µM; on AKT1 WT it was 0.01 to 0.1 µM; in experiment [1], at least 2 µM.
